According to patent US20110319495A1, “Pharmaceutical Composition for Hepatitis Treatment and Applications” (priority 2010, published 2011):

Key:
HepG2 cells [1] = test: Lipid peroxidation degree (MDA) in alcohol-treated HepG2 cells; assay type: cell-based, human; conditions: lucidone 1, 5, 10 μg/ml or curcumin 10 μg/ml, 1 h before 100 mM alcohol for 24 h
HepG2 cells [2] = test: Glutathione content in alcohol-treated HepG2 cells; assay type: cell-based, human; conditions: lucidone 1, 5, 10 μg/ml or curcumin 10 μg/ml, 1 h before 100 mM alcohol for 24 h
Protocol: A currently available GSH-96-well plate colorimetric GSH assay kit, Oxis International, Foster City, Calif., USA) is used to measure the content of glutathione (GSH). In brief, 40 μl chromogenic reagent dissolved in acid is added into 40 μl non-protein hepatocyte lysate, and added with 40 μl NaOH (30%), 40 μl color developer and buffer solution to form a mixed solution. Next, the mixed solution is shaken gently, and placed in room temperature for 10 m. Finally, a spectrometer (ELISA microplate reader, μQuant, Bio-Tek instruments, Inc., Winooski, Vt., USA) is used to detect the absorbance at wavelength 412 nm, and compared with a GSH absorbance curve of known concentration to judge the content of GSH. Similarly, the content of glutathione in the experimental mouseserum can be measured.

HO-1 [3] = test: HO-1 protein expression in HepG2 cells (Western blotting); assay type: cell-based, human; conditions: lucidone 1, 5, 10 μg/ml or curcumin 10 μg/ml, with 100 mM alcohol
HO-1 [4] = test: HO-1 mRNA expression in HepG2 cells (real-time PCR); assay type: cell-based, human; conditions: lucidone 1, 5, 10 μg/ml or curcumin 10 μg/ml, with 100 mM alcohol, standardized to β-actin
Protocol: Trizol reagent (Invitrogen Life Technologies, Carlsbad, Calif., USA) is used to extract total RNA of cells. One step RT-PCR is used for reverse transcription of mRNA of HO-1 and β-actin into cDNA, then real time-PCR (Applied Biosystems) is applied to real-time expression of HO-1 and β-actin.
Said real-time PCR is used to detect PCR products by combining DNA and SYBR Green. The thermal cycle is: 3 m at 96° C.; 1 m at 96° C. in 40 cycles, 30 s at 50° C. and 90 s at 72° C.

Nrf-2 and ARE = test: Bonding activity of Nrf-2 and ARE in HepG2 cells (EMSA); assay type: cell-based, human; conditions: 1, 5, 10 μg/ml with 100 mM alcohol, dose-dependent
[5] = test system: mouse suffered by hepatitis arising from alcohol; test: Content of ALT, AST, nitric oxide and TNF-α in serum, mouse model of hepatitis arising from alcohol; assay type: in vivo; conditions: lucidone 100 mg/Kg/day i.p. 7 d, mean ± SD
Source text: (§1) The experimental mouse is selected from 4-week male mouse of ICR family (25±5 g) in Charles River (Taipei, Taiwan). Prior to the experiment, the experimental mouse will be bred for at least 1 week in constant temperature lab conditions wherein unlimited feedstock and water are supplied. All animals shall be governed by the Guide for the Care and Use of Laboratory Animals and relevant animal protection acts of Taiwan, and approved by local ethics commissions. 80% alcohol or lucidone is applied to aforementioned experimental mouse (1 mL/Kg) by following methods: alcohol is applied orally, or by intra-peritoneal injection, or alcohol and lucidone are applied orally, or by intra-peritoneal injection.
(§2) A currently available test kit (Randox Laboratories, Antrim, UK) is applied to test the concentration of culture solution after cultivation of HepG2 cells as well as the concentration of ALT and AST in mouse serum. In brief, the experiment is designed to obtain the culture solution after cultivation of HepG2 cells and the serum of experimental mouse by the recommended test procedures.
(§3) According to the principle of Griess reaction, nitrite accumulated from the supernatant liquid cultivated by cells and mouse serum is measured to obtain indirectly the generation of nitric oxide. The supernatant liquid cultivated by cells and tumor necrosis factor-α in the serum are measured using the currently available human TNF-αELISA kit. In brief, aforementioned HepG2 cells of […] are separately cultivated in 96-well plate, and then added with lucidone and alcohol to cultivate them for 24 h. Next, the culture solution is diluted by the work reagent of aforementioned kit by a percentage of 1:2. Then, every 100 μl diluted culture solution is subject to ELISA reaction as per the operating instruction of aforementioned kit, and then a spectrometer is used to detect the absorbance at wavelength 450 nm so as to judge the content of tumor necrosis factor-α; in the mouse experiment, the mouse serum is diluted properly and then the content of tumor necrosis factor-α is tested as per the operating instruction of aforementioned kit.
(§4) The aforementioned mouse are grouped and then applied with lucidone for 7 d at a dose of 100 mg/Kg/day by means of intra-peritoneal injection, and at the 7th day, applied with lucidone and then applied with 80% alcohol orally or by intra-peritoneal injection at a dose of 1 ml/Kg, one time every 12 h with 3 doses; of which, the mouse of the control group is fed with 1% DMSO dissolved in saline solution.
Take out the serum of mouse suffered by hepatitis arising from alcohol as per aforementioned experimental design, and determine the content of ALT, AST, nitric oxide and TNF-α by the experimental methods in preferred embodiment 1.

Nrf-2 = Nrf-2 translocation in HepG2 cells (Western blotting of cytoplasm and nuclear extracts); assay type: cell-based, human; conditions: 1, 5, 10 μg/ml with 100 mM alcohol
Protocol: The cytosolic extracts and nuclear extracts are prepared as per the known test procedures using the currently available test kit (protocol #78833 Nuclear and Cytoplasmic Extraction Reagent kit). And, the common protein assay reagent (Bio-Rad) is used to measure the concentration of protein.
Western blotting is implemented as per the known test procedures in the relevant field, of which said anti-body and enhanced chemiluminescene regents (ECL, Pierce) are used for immunoblotting, and then an imaging device (Viogene Biotek, Sunnyvale, Calif., USA) is used for observing the results.
The aforementioned HepG2 cells cultivated normally are grouped, and then separately cultivated 1 h together with 0, 1, 5, 10 μg/ml lucidone (0 μg/ml, negative control group) or 10 μg/ml curcumin (curcumin, a known antioxidation compound, taken as a positive control group), and then alcohol (100 mM) is added for 24 h cultivation to stimulate oxidation stress. […]
HO-1 is one of ARE-driven antioxidant genes. […] In this experiment, the content of Nrf-2 in cytoplasm and nuclear extracts of tested HepG2 cells, as well as the bonding activity of Nrf-2 and ARE is measured (refer to relevant experimental methods in preferred embodiment 1).
Said content refers to the color strength of the result from Western blotting calculated by typical software in the field.

tumor necrosis factor-α = test: Content of TNF-α in culture solution of alcohol-treated HepG2 cells (ELISA); assay type: cell-based, human; conditions: 1, 5, 10 μg/ml, 1 h before 100 mM alcohol for 24 h; dose-dependent; effect equivalent to curcumin 10 μg/ml
Protocol: as §3, with “aforementioned kit. […]” for “aforementioned kit.”
(§5) The content of ALT, AST and tumor necrosis factor-α (TNF-α) in the tested culture solution of HepG2 cells is measured (refer to preferred embodiment 1 [test of ALT and AST concentration] and [measurement of tumor necrosis factor-α ]).

reactive oxygen species = test: Accumulation of reactive oxygen species in alcohol-treated HepG2 cells (DCF-DA); assay type: cell-based, human; conditions: 1, 5, 10 μg/ml, 1 h before 100 mM alcohol for 24 h; dose-dependent; effect equivalent to curcumin 10 μg/ml
Protocol: A currently available DCF-DA (dihydrodichloro-fluorescein diacetate; Sigma, USA) is used to monitor the accumulation of reactive oxygen species (ROS) in cells. In brief, the cells (1×10^7) are wetted by phosphate buffer solution, and then added into 10 μm DCF-DA for 4 h cultivation at 37° C., and then fluorescence spectrophotometer is used to measure the fluorescence (488 nm/530 nm).
(§6) The aforementioned HepG2 cells cultivated normally are grouped, and then separately cultivated 1 h together with 0, 1, 5, 10 μg/ml lucidone (0 μg/ml, negative control group) or 10 μg/ml curcumin (curcumin, a known antioxidation compound, taken as a positive control group), and then alcohol (100 mM) is added for 24 h cultivation to stimulate oxidation stress. The experiment groups and control groups are configured in Table 1:
The content of reactive oxygen species and nitric oxide in the tested culture solution of HepG2 cells is measured (refer to preferred embodiment 1 [Test of accumulation of reactive oxygen species in cells] and [Griess nitrite test]).
FIG. 3A depicts the content of reactive oxygen species of HepG2 cells in various groups, of which the fluorescence strength of DCF-DA indicates the content of reactive oxygen species. FIG. 3B depicts the generation of nitric oxide of HepG2 cells in various groups, of which nitrite generation indicates the generation of nitric oxide.

HepG2 cells [6] = test: Content of ALT and AST in culture solution of alcohol-treated HepG2 cells; assay type: cell-based, human; conditions: 1, 5, 10 μg/ml, 1 h before 100 mM alcohol for 24 h; dose-dependent; effect equivalent to curcumin 10 μg/ml
Protocol: as §2, §6, §5

nitric oxide = test: Griess nitrite test, nitric oxide generation in alcohol-treated HepG2 cells; assay type: cell-based, human; conditions: 1, 5, 10 μg/ml, 1 h before 100 mM alcohol for 24 h; dose-dependent; effect equivalent to curcumin 10 μg/ml
Protocol: as §3, with “aforementioned kit. […]” for “aforementioned kit.”
The content of reactive oxygen species and nitric oxide in the tested culture solution of HepG2 cells is measured (refer to preferred embodiment 1 [Test of accumulation of reactive oxygen species in cells] and [Griess nitrite test]). […]

[7] = test system: mouse suffered by hepatitis arising from alcohol; test: Content of GSH and MDA in serum and tissue, mouse model of hepatitis arising from alcohol; assay type: in vivo; conditions: lucidone 100 mg/Kg/day i.p. 7 d, mean ± SD; for GSH in tissue / MDA in tissue: liver tissue
Source text: as §1
A currently available lipid peroxidation test kit (Oxford Biomedical Research, Oxford, Mich., USA) is used to measure the degree of lipid peroxidation. In brief, the cells are lysed by 200 μl cell lysis buffer. Then, 140 μl cell lysate is mixed with 455 μl N-methyl-2-phenylindole dissolved in acetonitrile and 105 μl acid (HCL, 37%), and placed in 45° C. for 60 m. malondialdehyde (MDA) is a main product of polyunsaturated fatty acid lysed by peroxidation. In this experiment, N-methyl-2-phenylindole is used to generate stable chromophore through reaction with MDA, and the formation of MDA is measured under maximum absorbance wavelength 535 nm as an index of measuring lipid peroxidation. Similarly, the degree of lipid peroxidation in the serum of experimental mouse can be measured.
A currently available GSH-96-well plate colorimetric GSH assay kit, Oxis International, Foster City, Calif., USA) is used to measure the content of glutathione (GSH). In brief, 40 μl chromogenic reagent dissolved in acid is added into 40 μl non-protein hepatocyte lysate, and added with 40 μl NaOH (30%), 40 μl color developer and buffer solution to form a mixed solution. Next, the mixed solution is shaken gently, and placed in room temperature for 10 m. […] Similarly, the content of glutathione in the experimental mouseserum can be measured.
as §4
Take out the serum and liver tissue of mouse suffered by hepatitis arising from alcohol as per aforementioned experimental design, and measure GSH content and lipid peroxidation degree as per the experimental methods in preferred embodiment 1.

[8] = intra-peritoneal injection alcohol (80%, 1 ml/Kg, 3 doses every 12 h)
[9] = orally taking alcohol (80%, 1 ml/Kg, 3 doses every 12 h)
[10] = intra-peritoneal injection alcohol

With `COc1cc(/C=C/C(=O)CC(=O)/C=C/c2ccc(O)c(OC)c2)ccc1O` [curcumin, reference compound] the “lipid peroxidation in the cells caused by alcohol” value (HepG2 cells [1]) was “reduce greatly”, the “decline of GSH concentration in the cells caused by alcohol” value (HepG2 cells [2]) was “can be avoided” and the “expression of HO-1 protein in the cells” value (HO-1 [3]) was “substantial increase”. For the same molecule, the “expression of HO-1 mRNA in the cells” value (HO-1 [4]) was “substantial increase”.

In the case of `COC1=CC(=O)C(=C(O)/C=C/c2ccccc2)C1=O` [lucidone], the “bonding activity of Nrf-2 and ARE” value (Nrf-2 and ARE) is reported as “improve significantly the bonding activity”, the ALT in serum [5, 8] is reported as 103.0 ± 65.6 U/L and the AST in serum [5, 8] is reported as 139.6 ± 12.2 U/L. The TNF-α in serum [5, 8] was 3.91 ± 0.28 ng/mL, the “nitric oxide in serum” value [5, 8] was 102.3 ± 0.52 nM/mL and the ALT in serum [5, 9] was 875.4 ± 57.2 U/L. For the same molecule, the AST in serum [5, 9] was 508.0 ± 31.7 U/L, the TNF-α in serum [5, 9] was 10.0 ± 0.28 ng/mL and the “nitric oxide in serum” value [5, 9] was 370.6 ± 0.53 nM/mL. The “Nrf-2 translocation (Nrf-2 content in nucleus)” value (Nrf-2) was “facilitate Nrf-2 translocation”, the “content of TNF-α in cell culture solution” value (tumor necrosis factor-α) was “reduced the phenomenon of growing content” and the “generation of reactive oxygen species caused by alcohol” value (reactive oxygen species) was “reduced the generation”. For the same molecule, the “lipid peroxidation in the cells caused by alcohol” value (HepG2 cells [1]) was “reduce greatly”, the “content of ALT in cell culture solution” value (HepG2 cells [6]) was “reduced the phenomenon of growing content” and the “content of AST in cell culture solution” value (HepG2 cells [6]) was “reduced the phenomenon of growing content”. For the same molecule, the “decline of GSH concentration in the cells caused by alcohol” value (HepG2 cells [2]) was “can be avoided”, the “generation of nitric oxide caused by alcohol (nitrite)” value (nitric oxide) was “reduced the generation” and the “expression of HO-1 protein in the cells” value (HO-1 [3]) was “substantial increase”. The “expression of HO-1 mRNA in the cells” value (HO-1 [4]) was “substantial increase”, the GSH in tissue [7, 10] was 173.9 ± 58.5 nmol/mg of protein and the MDA in tissue [7, 10] was 20.9 ± 0.71 nmol/mg of protein. For the same molecule, the GSH in serum [7, 10] was 42.9 ± 1.8 nmol/mg of protein, the MDA in serum [7, 10] was 16.2 ± 0.77 nmol/mg of protein and the GSH in tissue ([7]; orally taking alcohol) was 261.2 ± 11.1 nmol/mg of protein. The MDA in tissue ([7]; orally taking alcohol) was 69.2 ± 0.67 nmol/mg of protein, the GSH in serum ([7]; orally taking alcohol) was 30.5 ± 1.0 nmol/mg of protein and the MDA in serum ([7]; orally taking alcohol) was 19.5 ± 0.41 nmol/mg of protein.
